Calls of active or inactive are those of the source. Rule as the data show it: actives have a measured IC50 and inactives only a lower limit.

For the assay, the target named is Envelope glycoprotein gp160 (Human immunodeficiency virus 1, UniProt Q6QLK5). The experiment in a line: inhibitors of HIV fusion peptide binding, primary screen, biochemical, uHTS, fluorescence dequenching (AID 1986).
Chain of Envelope glycoprotein gp160 (Q6QLK5 whole entry, the tested form may be a part): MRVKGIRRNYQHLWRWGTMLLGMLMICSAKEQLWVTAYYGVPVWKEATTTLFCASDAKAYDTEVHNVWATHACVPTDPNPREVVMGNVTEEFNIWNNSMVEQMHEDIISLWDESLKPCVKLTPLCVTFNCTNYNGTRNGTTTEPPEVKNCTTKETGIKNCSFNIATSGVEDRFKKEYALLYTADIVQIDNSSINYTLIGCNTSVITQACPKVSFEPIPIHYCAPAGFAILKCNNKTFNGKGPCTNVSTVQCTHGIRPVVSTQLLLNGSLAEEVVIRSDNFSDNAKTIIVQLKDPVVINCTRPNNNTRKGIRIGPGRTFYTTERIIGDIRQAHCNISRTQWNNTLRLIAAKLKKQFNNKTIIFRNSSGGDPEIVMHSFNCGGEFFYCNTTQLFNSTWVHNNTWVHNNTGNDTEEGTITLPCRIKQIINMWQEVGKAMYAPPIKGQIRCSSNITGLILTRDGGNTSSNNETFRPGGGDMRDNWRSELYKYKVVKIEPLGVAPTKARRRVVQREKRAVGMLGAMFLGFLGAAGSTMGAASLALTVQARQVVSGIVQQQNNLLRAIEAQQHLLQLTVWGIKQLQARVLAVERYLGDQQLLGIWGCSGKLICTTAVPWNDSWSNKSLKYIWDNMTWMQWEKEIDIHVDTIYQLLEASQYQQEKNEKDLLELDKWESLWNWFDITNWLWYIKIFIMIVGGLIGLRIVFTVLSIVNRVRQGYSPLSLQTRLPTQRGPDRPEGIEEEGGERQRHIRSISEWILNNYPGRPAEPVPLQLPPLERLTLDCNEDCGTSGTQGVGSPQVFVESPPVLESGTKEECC
Regarding `N#Cc1c(O)nc(SCC(=O)Nc2ccc(OC(F)(F)Cl)cc2)nc1-c1ccccc1`, the 50% inhibitory concentration (IC50) (in general, the point on the concentration scale where inhibition reaches its midpoint) is 15.6 µM (active). The result for `O=C(O)c1cccc(-n2cccc2/C=C2/NC(=O)N(c3ccc(Cl)cc3)C2=O)c1` reads 16.9 µM (active). The result for `COc1cc(/C=C2\C(=N)N3N=C(S(C)(=O)=O)SC3=NC2=O)cc(OC)c1OCCOc1cccc(C)c1` reads 13.8 µM (active).

Source of the values: ChEMBL document CHEMBL1201862, “PubChem BioAssay data set” (2004).
